One experiment deals with mutant G2019S LRRK2 (Homo sapiens, UniProt Q5S007, G2019S). Kind of experiment: LRRK2 Assay, Format 2 (Lantha Screen), G2019S mutant. As to conditions: geometric mean of 2-4 determinations unless otherwise indicated (a: >=5; b: single determination); read-out: LRRK2, Format 2 G2019S IC50. In kind it is biochemical. On the set-up: purchased Invitrogen PV4881.
Experiment [1] has as its target T1, GST-tagged truncated LRRK2 (Homo sapiens, UniProt Q5S007).
T1 construct: GST-tagged truncated LRRK2 from Invitrogen (Cat # PV4874); GST; purchased Invitrogen PV4874
Kind of experiment: LRRK2 Assay, Format 2 (Lantha Screen), WT. As to conditions: geometric mean of 2-4 determinations unless otherwise indicated (a: >=5; b: single determination). In kind it is biochemical.

SMILES strings stand for the structures. Structures can show the parent of a compound that is named as a salt.

For 27 compounds, IC50 results are on record in patent US10039753B2, “Imidazo[4,5-c]quinoline and imidazo[4,5-c][1,5]naphthyridine derivatives as LRRK2 inhibitors” (Pfizer Inc., priority 2015, dated 2018).

mutant G2019S LRRK2, sequence (Q5S007 970-2527 G2019S limits assumed): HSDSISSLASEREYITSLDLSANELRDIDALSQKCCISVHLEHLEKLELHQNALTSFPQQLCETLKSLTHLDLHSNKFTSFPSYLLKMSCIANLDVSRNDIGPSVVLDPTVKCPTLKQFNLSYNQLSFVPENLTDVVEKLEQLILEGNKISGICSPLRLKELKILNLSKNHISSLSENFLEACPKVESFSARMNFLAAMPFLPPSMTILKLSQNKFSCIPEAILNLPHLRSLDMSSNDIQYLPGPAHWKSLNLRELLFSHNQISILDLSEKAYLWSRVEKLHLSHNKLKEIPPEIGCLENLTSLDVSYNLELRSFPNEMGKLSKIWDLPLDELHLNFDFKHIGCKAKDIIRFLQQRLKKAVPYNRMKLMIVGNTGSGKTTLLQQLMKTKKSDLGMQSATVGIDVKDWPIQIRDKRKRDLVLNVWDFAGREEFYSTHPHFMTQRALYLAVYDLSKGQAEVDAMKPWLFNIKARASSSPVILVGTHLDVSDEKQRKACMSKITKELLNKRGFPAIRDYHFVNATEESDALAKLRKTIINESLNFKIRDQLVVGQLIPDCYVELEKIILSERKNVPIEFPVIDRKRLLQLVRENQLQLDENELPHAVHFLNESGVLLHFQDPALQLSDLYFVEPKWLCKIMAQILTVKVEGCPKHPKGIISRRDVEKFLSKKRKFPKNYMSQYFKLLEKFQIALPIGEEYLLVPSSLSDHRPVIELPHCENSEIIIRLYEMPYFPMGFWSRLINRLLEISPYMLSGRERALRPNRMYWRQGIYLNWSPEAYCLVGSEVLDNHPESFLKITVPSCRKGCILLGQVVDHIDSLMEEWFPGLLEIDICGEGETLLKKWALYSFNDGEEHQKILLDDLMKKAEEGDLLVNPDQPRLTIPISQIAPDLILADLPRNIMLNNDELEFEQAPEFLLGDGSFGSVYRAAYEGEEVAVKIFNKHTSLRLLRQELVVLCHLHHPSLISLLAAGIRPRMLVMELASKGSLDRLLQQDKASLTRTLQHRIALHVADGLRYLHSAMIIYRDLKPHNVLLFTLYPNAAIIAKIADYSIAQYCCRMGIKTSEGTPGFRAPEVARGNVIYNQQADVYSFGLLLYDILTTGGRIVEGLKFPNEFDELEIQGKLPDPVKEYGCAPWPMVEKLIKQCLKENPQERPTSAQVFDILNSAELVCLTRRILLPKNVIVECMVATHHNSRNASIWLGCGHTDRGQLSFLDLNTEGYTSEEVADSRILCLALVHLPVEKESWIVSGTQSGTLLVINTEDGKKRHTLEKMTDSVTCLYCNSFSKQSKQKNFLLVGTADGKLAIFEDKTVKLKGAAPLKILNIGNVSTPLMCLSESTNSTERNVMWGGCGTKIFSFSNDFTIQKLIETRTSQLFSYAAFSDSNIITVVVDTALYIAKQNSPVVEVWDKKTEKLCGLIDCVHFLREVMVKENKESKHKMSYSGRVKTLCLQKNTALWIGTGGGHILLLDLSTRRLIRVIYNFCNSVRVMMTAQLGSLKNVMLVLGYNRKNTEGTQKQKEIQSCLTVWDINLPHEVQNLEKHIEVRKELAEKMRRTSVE
T1 sequence (Q5S007 970-2527 limits assumed): as the sequence (Q5S007 970-2527 G2019S limits assumed) above, with S1050G counted along it

As for `Cc1cnn(Cc2nc3cnc4ccc(Cl)cc4c3n2[C@@H]2CCO[C@H](C)C2)c1` [Example 212, 8-chloro-2-[(4-methyl-1H-pyrazol-1-yl)methyl]-1-[(2R,4R)-2-methyltetrahydro-2H-pyran-4-yl]-1H-imidazo[4,5-c]quinoline], the results for the IC50 (on mutant G2019S LRRK2; in experiment [1]) were 8.15 nM and 8.47 nM, respectively.

In the case of `Cc1cc(Cc2nc3cnc4ccc(C#N)cc4c3n2[C@@H]2CCN(C)C2)no1` [Example 213, 2-[(5-methyl-1,2-oxazol-3-yl)methyl]-1-[(3R)-1-methylpyrrolidin-3-yl]-1H-imidazo[4,5-c]quinoline-8-carbonitrile, formate salt], the IC50 at mutant G2019S LRRK2 worked out at 7.03 nM; in experiment [1] it was 3.38 nM.

Consider `C[C@@H]1C[C@H](n2c(C(F)(F)c3ccccn3)nc3cnc4ccc(Cl)cc4c32)CCO1` [Example 214, 8-chloro-2-[difluoro(pyridin-2-yl)methyl]-1-[(2R,4R)-2-methyltetrahydro-2H-pyran-4-yl]-1H-imidazo[4,5-c]quinoline, formate salt], for which the values for the IC50 (at mutant G2019S LRRK2; in experiment [1]) were 9.67 nM and 7.67 nM, respectively.

As for `Cc1cc(Cc2nc3cnc4ccc(C#N)cc4c3n2C2CCC2)no1` [Example 216, 1-cyclobutyl-2-[(5-methyl-1,2-oxazol-3-yl)methyl]-1H-imidazo[4,5-c]quinoline-8-carbonitrile, formate salt], the half-maximal inhibitory concentration (IC50) at mutant G2019S LRRK2 worked out at 38.6 nM; in experiment [1] it was 26.6 nM.

In the case of `Cc1cc(Cc2nc3cnc4ccc(C#N)cc4c3n2C2CCN(C)C2)no1` (stereo not drawn) [Example 217, 2-[(5-methyl-1,2-oxazol-3-yl)methyl]-1-(1-methylpyrrolidin-3-yl)-1H-imidazo[4,5-c]quinoline-8-carbonitrile, formate salt], the IC50 on mutant G2019S LRRK2 is 11.1 nM; in experiment [1], 5.43 nM.

Regarding `Cc1cc(Cc2nc3cnc4ccc(C#N)cc4c3n2[C@H]2CCN(C)C2)no1` [Example 218, 2-[(5-methyl-1,2-oxazol-3-yl)methyl]-1-[(3S)-1-methylpyrrolidin-3-yl]-1H-imidazo[4,5-c]quinoline-8-carbonitrile, formate salt], the IC50 on mutant G2019S LRRK2 worked out at 32.2 nM; in experiment [1], 21.4 nM.

For the compound `CO[C@H]1CC[C@H](n2c(Cc3cc(C)on3)nc3cnc4ccc(C#N)cc4c32)CC1` [Example 219, 1-(trans-4-methoxycyclohexyl)-2-[(5-methyl-1,2-oxazol-3-yl)methyl]-1H-imidazo[4,5-c]quinoline-8-carbonitrile, formate salt], the IC50 at mutant G2019S LRRK2 was found to be 126 nM; in experiment [1], 246 nM.

As to `C[C@@H]1C[C@H](n2c(C(F)c3csnn3)nc3cnc4ccc(Cl)cc4c32)CCO1` (stereo partly drawn) [Example 220, 8-chloro-2-[fluoro(1,2,3-thiadiazol-4-yl)methyl]-1-[(2R,4R)-2-methyltetrahydro-2H-pyran-4-yl]-1H-imidazo[4,5-c]quinoline, formate salt], the IC50 on mutant G2019S LRRK2 came out at 5.03 nM; in experiment [1], 4.81 nM.

For the compound `Cc1cc(Cc2nc3cnc4ccc(Cl)cc4c3n2[C@@H]2CCO[C@H](CF)C2)no1` [Example 221, 8-chloro-1-[(2S,4R)-2-(fluoromethyl)tetrahydro-2H-pyran-4-yl]-2-[(5-methyl-1,2-oxazol-3-yl)methyl]-1H-imidazo[4,5-c]quinoline], the half-inhibitory concentration (IC50) was determined as 2.89 nM on mutant G2019S LRRK2 and 3.19 nM in experiment [1].

Consider `C[C@@H]1C[C@H](n2c(Cc3ccncn3)nc3cnc4ccc(C#N)cc4c32)CCO1` [Example 222, 1-[(2R,4R)-2-methyltetrahydro-2H-pyran-4-yl]-2-(pyrimidin-4-ylmethyl)-1H-imidazo[4,5-c]quinoline-8-carbonitrile], for which the IC50 at mutant G2019S LRRK2 was determined as 8.59 nM; in experiment [1], 9.08 nM.

On to `C[C@@H]1C[C@H](n2c(Cc3ccccn3)nc3cnc4ccc(C#N)cc4c32)CCO1` [Example 223, 1-[(2R,4R)-2-methyltetrahydro-2H-pyran-4-yl]-2-(pyridin-2-ylmethyl)-1H-imidazo[4,5-c]quinoline-8-carbonitrile], for which the IC50 is 9.45 nM on mutant G2019S LRRK2 and 9.69 nM in experiment [1].

As to `CC(F)(F)Cn1c(Cc2cscn2)nc2cnc3ccc(C#N)cc3c21` [Example 224, 1-(2,2-difluoropropyl)-2-(1,3-thiazol-4-ylmethyl)-1H-imidazo[4,5-c]quinoline-8-carbonitrile], the IC50 at mutant G2019S LRRK2 was found to be 11.1 nM; in experiment [1], 9.15 nM.

In the case of `CC(F)(F)Cn1c(Cn2ccc(C3CC3)n2)nc2cnc3ccc(C#N)cc3c21` [Example 225, 2-[(3-cyclopropyl-1H-pyrazol-1-yl)methyl]-1-(2,2-difluoropropyl)-1H-imidazo[4,5-c]quinoline-8-carbonitrile], the IC50 was 8.7 nM at mutant G2019S LRRK2 and 7.23 nM in experiment [1].

With `Cc1nn2cc(Cc3nc4cnc5ccc(C#N)cc5c4n3CC(C)(F)F)nc2s1` [Example 226, 1-(2,2-difluoropropyl)-2-[(2-methylimidazo[2,1-b][1,3,4]thiadiazol-6-yl)methyl]-1H-imidazo[4,5-c]quinoline-8-carbonitrile], the IC50 on mutant G2019S LRRK2 is 5.82 nM; in experiment [1], 4.54 nM.

Take `CC(F)(F)Cn1c(Cn2cc(C(F)(F)F)cn2)nc2cnc3ccc(C#N)cc3c21` [Example 227, 1-(2,2-difluoropropyl)-2-{[4-(trifluoromethyl)-1H-pyrazol-1-yl]methyl}-1H-imidazo[4,5-c]quinoline-8-carbonitrile]: the half-inhibitory concentration (IC50) on mutant G2019S LRRK2 came to 10.8 nM; in experiment [1], 9.06 nM.

On to `Cc1cc(Cc2nc3cnc4ccc(C#N)cc4c3n2CC(F)F)no1` [Example 228, 1-(2,2-difluoroethyl)-2-[(5-methyl-1,2-oxazol-3-yl)methyl]-1H-imidazo[4,5-c]quinoline-8-carbonitrile], for which the IC50 at mutant G2019S LRRK2 came to 69.4 nM; in experiment [1] it was 46.7 nM.

In the case of `C[C@@H]1C[C@H](n2c(Cc3cnco3)nc3cnc4ccc(C#N)cc4c32)CCO1` [Example 229, 1-[(2R,4R)-2-methyltetrahydro-2H-pyran-4-yl]-2-(1,3-oxazol-5-ylmethyl)-1H-imidazo[4,5-c]quinoline-8-carbonitrile, formate salt], the IC50 worked out at 9.37 nM at mutant G2019S LRRK2 and 9.71 nM in experiment [1].

Regarding `Cc1nc(Cc2nc3cnc4ccc(C#N)cc4c3n2[C@@H]2CCO[C@H](C)C2)c(C)o1` [Example 230, 2-[(2,5-dimethyl-1,3-oxazol-4-yl)methyl]-1-[(2R,4R)-2-methyltetrahydro-2H-pyran-4-yl]-1H-imidazo[4,5-c]quinoline-8-carbonitrile, formate salt], the results for the IC50 (on mutant G2019S LRRK2; in experiment [1]) were 8.48 nM and 11.6 nM, respectively.

As for `C[C@@H]1C[C@H](n2c(Cc3cncs3)nc3cnc4ccc(C#N)cc4c32)CCO1` [Example 231, 1-[(2R,4R)-2-methyltetrahydro-2H-pyran-4-yl]-2-(1,3-thiazol-5-ylmethyl)-1H-imidazo[4,5-c]quinoline-8-carbonitrile, formate salt], the IC50 amounted to 26.6 nM at mutant G2019S LRRK2 and 24.9 nM in experiment [1].

For the compound `Cc1ccc(Cc2nc3cnc4ccc(C#N)cc4c3n2[C@@H]2CCO[C@H](C)C2)nc1` [Example 232, 2-[(5-methylpyridin-2-yl)methyl]-1-[(2R,4R)-2-methyltetrahydro-2H-pyran-4-yl]-1H-imidazo[4,5-c]quinoline-8-carbonitrile], the half-inhibitory concentration (IC50) at mutant G2019S LRRK2 turned out to be 7.26 nM; in experiment [1] it was 8.48 nM.

As to `Cc1ccn(Cc2nc3cnc4ccc(C#N)cc4c3n2[C@@H]2CCO[C@H](C)C2)n1` [Example 233, 2-[(3-methyl-1H-pyrazol-1-yl)methyl]-1-[(2R,4R)-2-methyltetrahydro-2H-pyran-4-yl]-1H-imidazo[4,5-c]quinoline-8-carbonitrile, formate salt], the values for the IC50 (on mutant G2019S LRRK2; in experiment [1]) were 11.9 nM and 14.3 nM, respectively.

In the case of `Cc1nc(Cc2nc3cnc4ccc(C#N)cc4c3n2[C@@H]2CCO[C@H](C)C2)cs1` [Example 234, 1-[(2R,4R)-2-methyltetrahydro-2H-pyran-4-yl]-2-[(2-methyl-1,3-thiazol-4-yl)methyl]-1H-imidazo[4,5-c]quinoline-8-carbonitrile, formate salt], the 50% inhibitory concentration (IC50) at mutant G2019S LRRK2 came out at 9.5 nM; in experiment [1], 10.7 nM.

As to `C[C@@H]1C[C@H](n2c(Cc3cn(C)cn3)nc3cnc4ccc(C#N)cc4c32)CCO1` [Example 235, 2-[(1-methyl-1H-imidazol-4-yl)methyl]-1-[(2R,4R)-2-methyltetrahydro-2H-pyran-4-yl]-1H-imidazo[4,5-c]quinoline-8-carbonitrile, formate salt], the values for the IC50 (on mutant G2019S LRRK2; in experiment [1]) were 9.43 nM and 10.6 nM, respectively.

`C[C@@H]1C[C@H](n2c(C(F)(F)c3ccccn3)nc3cnc4ccc(C#N)cc4c32)CCO1` [Example 236, 2-[difluoro(pyridin-2-yl)methyl]-1-[(2R,4R)-2-methyltetrahydro-2H-pyran-4-yl]-1H-imidazo[4,5-c]quinoline-8-carbonitrile, formate salt]: the figures for the IC50 (at mutant G2019S LRRK2; in experiment [1]) were 11.9 nM and 13 nM, respectively.

With `Cc1cc(Cc2nc3cnc4ccc(C#N)cc4c3n2C2CCOC(C)(C)C2)no1` (stereo not drawn) [Example 239, 1-(2,2-dimethyltetrahydro-2H-pyran-4-yl)-2-[(5-methyl-1,2-oxazol-3-yl)methyl]-1H-imidazo[4,5-c]quinoline-8-carbonitrile, formate salt], the IC50 on mutant G2019S LRRK2 was 10.8 nM; in experiment [1] it was 9.74 nM.

On to `Cc1cc(Cc2nc3cnc4ccc(C#N)cc4c3n2[C@H]2CC[C@H](O)CC2)no1` [Example 240, 1-(trans-4-hydroxycyclohexyl)-2-[(5-methyl-1,2-oxazol-3-yl)methyl]-1H-imidazo[4,5-c]quinoline-8-carbonitrile, formate salt], for which the concentration for half-maximal inhibition (IC50) at mutant G2019S LRRK2 was determined as 35.7 nM; in experiment [1] it was 51.8 nM.

Take `Cc1cc(Cc2nc3cnc4ccc(C#N)cc4c3n2[C@H]2CC[C@@H](F)C2)no1` [Example 241, 1-[(1S,3R)-3-fluorocyclopentyl]-2-[(5-methyl-1,2-oxazol-3-yl)methyl]-1H-imidazo[4,5-c]quinoline-8-carbonitrile, formate salt]: the figures for the half-maximal inhibitory concentration (IC50) (on mutant G2019S LRRK2; in experiment [1]) were 33.5 nM and 29.3 nM, respectively.
